Here are results for nine molecules from patent US20220267350A1, “ADENOSINE RECEPTOR ANTAGONIST” (XIAMEN BIOTIME BIOTECHNOLOGY CO., LTD., priority 2019, published 2022).

One assay concerns the target A2A receptor (Homo sapiens, UniProt P29274). Description: A2A receptor antagonist functional assay (cAMP, NECA at EC80). It is filed as cell-based. The settings on record: A2A cell line (PerkinElmer ES-011-C); 5'-N-ethylcarboxamidoadenosine at EC80; cAMP readout; read-out: A2A Antagonistic function IC50. The procedure:
(§1) The A2A cell line was derived from PerkinElmer (Product ID: ES-011-C); the A2B cell line was derived from PerkinElmer (Product ID: ES-013-C). The experimental procedure was referred to ACS Medicinal Chemistry Letters (2011) 2, 213-218; the specific test was completed by Pharmaron Beijing Co., Ltd. with the following steps: 10 nL of compound stock in DMSO (10 mM) followed by 10 μL of A2A or A2B cell suspension (30000 cells/mL) were transferred to assay wells of a 384-well plate at room temperature and incubated for 20 minutes at room temperature. The corresponding amount of 5′-N-ethylcarboxamidoadenosine at EC80 activation concentration was transferred to each test well, and incubated for another 30 minutes at 37° C., 5% CO2, 95% humidity, then Eu-cAMP tracer working solution and Ulight-anti-cAMP working solution were added to the cell culture plate at 5 uL/well in sequence, and the cell plate fluorescence was read with Envision (excitation wavelength: 320 nm, emission wavelength: 665 nm and 615 nm). The corresponding inhibition rate in each well was obtained according to the following formula, and a sigmoidal dose-inhibition rate curve was plotted using a non-linear regression model to calculate the IC50 value.

Another assay deals with T1, A2B receptor (Homo sapiens, UniProt P29275).
T1 sequence (P29275 1-332): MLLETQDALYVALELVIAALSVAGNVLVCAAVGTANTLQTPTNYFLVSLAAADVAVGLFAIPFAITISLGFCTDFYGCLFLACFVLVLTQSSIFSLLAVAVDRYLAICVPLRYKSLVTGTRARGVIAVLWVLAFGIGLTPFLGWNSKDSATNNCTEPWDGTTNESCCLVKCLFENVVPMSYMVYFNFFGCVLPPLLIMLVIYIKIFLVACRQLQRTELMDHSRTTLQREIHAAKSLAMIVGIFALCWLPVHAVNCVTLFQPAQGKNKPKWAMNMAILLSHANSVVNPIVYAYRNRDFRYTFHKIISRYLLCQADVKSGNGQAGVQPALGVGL
Description: A2B receptor antagonist functional assay (cAMP, NECA at EC80). The settings on record: A2B cell line (PerkinElmer ES-013-C); 5'-N-ethylcarboxamidoadenosine at EC80; cAMP readout; read-out: A2B Antagonistic function IC50. It is filed as cell-based. As to the method: as §1

Molecules are shown by their SMILES.

Chain of A2A receptor (P29274 whole entry): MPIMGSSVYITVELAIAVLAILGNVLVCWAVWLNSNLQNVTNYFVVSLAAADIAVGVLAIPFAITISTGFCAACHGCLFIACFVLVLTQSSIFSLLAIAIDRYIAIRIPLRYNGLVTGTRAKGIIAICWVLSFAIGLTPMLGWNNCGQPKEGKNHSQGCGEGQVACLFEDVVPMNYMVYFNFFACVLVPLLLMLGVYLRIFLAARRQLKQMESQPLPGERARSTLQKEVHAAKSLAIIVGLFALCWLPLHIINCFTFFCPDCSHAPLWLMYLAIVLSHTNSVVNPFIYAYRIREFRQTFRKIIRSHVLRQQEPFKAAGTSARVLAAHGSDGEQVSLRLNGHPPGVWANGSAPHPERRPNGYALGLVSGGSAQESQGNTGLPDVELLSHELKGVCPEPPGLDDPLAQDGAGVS

Usually IC50 stands for the concentration at which inhibition is half-maximal. On to `COc1cccc(Cc2noc3c(-c4ccc(C)o4)nc(N)nc23)c1` [Compound 1], for which the IC50 is 3.8 nM on A2A receptor and 149 nM on A2B receptor. Turning to `Cc1ccc(-c2nc(N)nc3c(Cc4ccc(F)cc4)noc23)o1` [Compound 2], the IC50 on A2A receptor was 7 nM. `COc1ccc(Cc2noc3c(-c4ccc(C)o4)nc(N)nc23)cc1` [Compound 3]: on A2A receptor, the IC50 was found to be 120 nM.

In the case of `COc1ccccc1Cc1noc2c(-c3ccc(C)o3)nc(N)nc12` [Compound 4], the IC50 at A2A receptor was determined as 6.9 nM. As for `Cc1ccc(-c2nc(N)nc3c(Cc4ccc(Cl)cc4)noc23)o1` [Compound 5], the IC50 at A2A receptor is 31.8 nM. Same read-out and setting: the value for `Cc1ccc(-c2nc(N)nc3c(Cc4cccc(Cl)c4)noc23)o1` [Compound 6] was 3.7 nM. `Cc1ccc(-c2nc(N)nc3c(Cc4cccc(O)c4)noc23)o1` [Compound 7]: the IC50 on A2A receptor and on A2B receptor was 11 nM throughout.

For `Cc1ccc(-c2nc(N)nc3c(Cc4ccc(O)cc4)noc23)o1` [Compound 8], the IC50 on A2A receptor was determined as 80 nM. Consider `Cc1ccc(-c2nc(N)nc3c(Cc4ccccc4O)noc23)o1` [Compound 9], for which the IC50 at A2A receptor amounted to 10.2 nM.
